Results: patent US4957730A, “Antimycotic nail varnish” (Hoechst Aktiengesellschaft, priority 1985, dated 1990)
In brackets after ≈: the same amount, converted by molar mass.

Experiments:
[1] = test system: Trichophyton mentagrophytes 109 (100/25); experiment: in vitro series dilution test (MIC); format: cell-based; settings: T. mentagrophytes
Description: (§1) The results of these experiments are shown in Table 1 in comparison with the efficacy of the pyridone compounds against the highly virulent skin fungus Trichophyton mentagrophytes 109 (100/25) in the in vitro series dilution test and in the guinea pig trichophytosis model.
*Minimum inhibitory concentration (MIC) in the series dilution test

[2] = test system: Trichophyton mentagrophytes 109 (100/25); experiment: guinea pig trichophytosis model, inhibition on the skin surface; design: concentration or dose not given beside the values; settings: in vivo
Description: as §1
**Percentage inhibition on the skin surface in the guinea pig
Trichophytosis model (W. Dittmar, Mykosen 18 (8), 351-361 (1975)

T. mentagrophytes = experiment: penetration test on excised pig skin: growth inhibition in the lowest region of the horny layer
Protocol: The test method for penetration capacity on excised skin from pigs enables the capacity to penetrate of an effective concentration of compounds horny tissue to be tested.
(§2) In the tests for the penetration capacity, the surface of shaved pieces of skin was first treated with 0.3% strength solutions of the compounds 1-8 and likewise with three similar compounds not claimed, in each case dissolved in a mixture of 1 ml of dimethyl sulfoxide and 9 ml of isopropanol, at room temperature and was washed again after 2 hours. The lowest region of the horny layer was then exposed by removing the superficial layers by peeling off with adhesive strips ten times in succession. The deep-lying horny layer now exposed was inoculated with virulent pathogens of nail mycoses (dermatophytes). Conclusions as to the level of the penetration capacity were drawn on the basis of the degree of growth inhibition found.
as §1
***Horny layer penetration: percentage growth inhibition by the substance
which has penetrated into the lowest part of the horny layer.
(§3) *Time between application of the product and stripping of the skin

[3] = test system: Trichophyton mentagrophytes; experiment: penetration test on horny human skin with nail varnishes: growth inhibition in the deep horny layer; settings: for growth inhibition of Trichophyton mentagrophytes in the deep lying horny layer of human skin: in words, 1 or 2 hours
Protocol: as §2
In further experiments, the substantially thicker horny human skin was treated by the test method described above at room temperature for 1 or 2 hours with 3% strength nail varnishes of compounds 9 and 10 and likewise with a similar compound 4, which is not claimed, in comparison with the abovementioned nail varnish containing sulbentine. The varnish base of examples 9 and 10 and of comparison 4 and 5 was prepared by mixing the following constituents:
2-Hydroxy-4-methoxybenzophenone: 0.1%
Sodium dioctyl sulfosuccinate: 1.0%
50% strength solution of a copolymer of methyl vinyl ether and monobutyl maleate in isopropyl alcohol: 30.0%
as §3

[4] = Table 1, pig skin, 0.3% strength solutions, washed after 2 hours, lowest part of horny layer
[5] = humans, 3% strength varnishes, action time 60 min
[6] = humans, 3% strength varnishes, action time 120 min

Structure (SMILES) | MIC [1] [µg/mL] | Inhibition (%) on skin [2] | Inhibition (%) in the horny layer (T. mentagrophytes; [4]) | also measured
Cc1cc(C(C)C)n(O)c(=O)c1 [Comparison 1, reference compound] | 1.95 (≈ 11.7 µM) | 75,0% | 35,7% | –
CCCCCCCCCCCc1cc(C)cc(=O)n1O [Comparison 2, reference compound] | 3.9 (≈ 14 µM) | 100,0% | 9,8% | Inhibition (%) in the deep horny layer (T. mentagrophytes; 2 h): 9,8%; Inhibition (%) in the deep horny layer [3, 5]: 51,4%; Inhibition (%) in the deep horny layer [3, 6]: 49,4%; growth inhibition of Trichophyton mentagrophytes in the deep lying horny layer of human skin ([3]; 3% strength varnishes): only an inadequate inhibiting effect
Cc1cc(CCCCc2ccccc2)n(O)c(=O)c1 [Comparison 3, reference compound] | 3.9 (≈ 15.2 µM) | 88,0% | 24,2% | –
CCCCCCCc1cc(C)cc(=O)n1O [Example 1] | 1.95 (≈ 8.73 µM) | 89,4% | 97,0% | –
CCCCC(CC)c1cc(C)cc(=O)n1O (stereo not drawn) [Example 2] | 1.95 (≈ 8.73 µM) | 85,6% | – | Inhibition (%) in the horny layer (T. mentagrophytes; 2 h): 85,8%
Cc1cc(CC(C)CC(C)(C)C)n(O)c(=O)c1 (stereo not drawn) [Example 3] | 1.95 (≈ 8.22 µM) | 91,9% | 99,6% | –
Cc1cc(C2CCCCC2)n(O)c(=O)c1 [Example 4] | 1.95 (≈ 9.41 µM) | 88,0% | 98,0% | –
Cc1cc(CCC2CCCCC2)n(O)c(=O)c1 [Example 5] | 1.95 (≈ 8.29 µM) | 88,0% | 81,2% | –
Cc1cc(C2CC3CCC2C3)n(O)c(=O)c1 (stereo not drawn) [Example 6] | 1.95 (≈ 8.89 µM) | 88,0% | 79,9% | –
Cc1ccc(Cc2cc(C)c(C)c(=O)n2O)c(C)c1 [Example 7] | 1.95 (≈ 7.58 µM) | 88,8% | 80,0% | –
Cc1cc(CCc2ccccc2)n(O)c(=O)c1 [Example 8] | 1.95 (≈ 8.5 µM) | 88,0% | 81,9% | –
Cc1cc(CC(C)CC(C)(C)C)n(O)c(=O)c1 (stereo not drawn) [Example 9] | – | – | – | Inhibition (%) in the deep horny layer (T. mentagrophytes; 2 h): 99,6%; Inhibition (%) in the deep horny layer ([3]; 1 h): 99,0%; Inhibition (%) in the deep horny layer ([3]; 2 h): 99,9%; growth inhibition of Trichophyton mentagrophytes in the deep lying horny layer of human skin ([3]; 3% strength varnishes): almost completely or completely inhibit the growth
Cc1cc(C2CCCCC2)n(O)c(=O)c1 [Example 10] | – | – | – | Inhibition (%) in the deep horny layer (T. mentagrophytes; 2 h): 98,0%; Inhibition (%) in the deep horny layer [3, 5]: 100,0%; Inhibition (%) in the deep horny layer [3, 6]: 100,0%; growth inhibition of Trichophyton mentagrophytes in the deep lying horny layer of human skin ([3]; 3% strength varnishes): almost completely or completely inhibit the growth
